This note sets out measurements from patent US20100305315A1, “Process for the preparation of 2-(primary/secondary amino)hydrocarbyl)-carbamoyl-7-oxo-2,6-diaza-bicyclo [3.2.0.]heptane-6-sulfonic acid derivatives” (Basilea Pharmaceutica AG, priority 2007, published 2010).

The series is described as follows: physchem. Conditions: 25 °C, organic solvent or mixture.

What is called solubility is the concentration that dissolves in the medium under given conditions. `O=C1[C@H]2NCC[C@H]2N1S(=O)(=O)O` [(1S,5R)-7-oxo-2,6-diaza-bicyclo[3.2.0]heptane-6-sulfonic acid]: the solubility is at most 200 mg/mL.
